In patent US20250221988A1 (Cullgen (Shanghai), Inc., priority 2022, published 2025):
Where two headings read alike, the source gives them in different places.

Assays:
MOLM-13 cells = assay: Cell viability assay (CellTiter-Glo) in MOLM-13 cells; assay type: cell-based; conditions: MOLM-13 cells, three days
MV4;11 cells = assay: Cell viability assay (CellTiter-Glo) in MV4;11 cells; assay type: cell-based; conditions: MV4;11 cells, three days, read-out: MV4
Outline: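 5000 cells/well in RPMI 1640 or DMEM with 10% FBS, treated with 8- or 12-point 3-fold compound dilutions, with or without gilteritinib (10 nM for MV4;11, 20 nM for MOLM-13). Viability by CellTiter-Glo after three days; IC50 by nonlinear least-squares regression.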

[1] = Homo sapiens, 72 h, compound alone, read-out: MOLM-13 IC50
[2] = with gilteritinib, read-out: MOLM-13 IC50 (nM) + 10 nM Gil
[3] = Homo sapiens, MV4-11, 72 h, compound alone, 11 IC50
[4] = with 10 nM gilteritinib, 11 IC50 (nM) + 10 nM Gil

Compound	IC50 (MOLM-13 cells; [1]) [nM]	IC50 (MOLM-13 cells; [2]) [nM]	IC50 (MV4;11 cells; [3]) [nM]	IC50 (MV4;11 cells; [4]) [nM]	IC50 (MV4;11 cells; compound alone, 11 IC50) [nM]	IC50 (MOLM-13 cells; compound alone, read-out: MOLM-13 IC50) [nM]
O=C1CCC(N2C(=O)c3ccc(NC[C@H]4C[C@H](n5cc(-n6ccc7cccnc76)c(C6CC6)n5)C4)cc3C2=O)C(=O)N1 (stereo partly drawn) [GS-751, 5-(((Trans-3-(3-cyclopropyl-4-(1H-pyrrolo[2,3-b]pyridin-1-yl)-1H-pyrazol-1-yl)cyclobutyl)methyl)amino)-2-(2,6-dioxopiperidin-3-yl)isoindoline-1,3-dione]	10 to 100	< 10	< 10	< 10		
O=C1CCC(N2C(=O)c3ccc(NC[C@H]4C[C@H](n5cc(-c6ncc(F)cc6OC6CC6)c(C6CC6)n5)C4)cc3C2=O)C(=O)N1 (stereo partly drawn) [GS-752, 5-(((Trans-3-(4-(3-cyclopropoxy-5-fluoropyridin-2-yl)-3-cyclopropyl-1H-pyrazol-1-yl)cyclobutyl)methyl)amino)-2-(2,6-dioxopiperidin-3-yl)isoindoline-1,3-dione]	< 10	< 10	< 10	< 10		
Cc1nc(-c2cn([C@H]3C[C@H](CCc4ccc5c(c4)CN(C4CCC(=O)NC4=O)C5=O)C3)nc2C2CC2)ccc1F (stereo partly drawn) [GS-753, 3-(5-(2-(Trans-3-(3-cyclopropyl-4-(5-fluoro-6-methylpyridin-2-yl)-1H-pyrazol-1-yl)cyclobutyl)ethyl)-1-oxoisoindolin-2-yl)piperidine-2,6-dione]	100 to 1000	10 to 100	10 to 100	< 10		
Cc1nc(-c2cn([C@H]3C[C@H](C#Cc4ccc5c(c4)CN(C4CCC(=O)NC4=O)C5=O)C3)nc2C2CC2)ccc1F (stereo partly drawn) [GS-754, 3-(5-((Trans-3-(3-cyclopropyl-4-(5-fluoro-6-methylpyridin-2-yl)-1H-pyrazol-1-yl)cyclobutyl)ethynyl)-1-oxoisoindolin-2-yl)piperidine-2,6-dione]	> 1000	100 to 1000	> 1000	100 to 1000		
CN1CC(c2ccc3nc(-c4cn([C@H]5C[C@H](CNc6ccc7c(c6)C(=O)N(C6CCC(=O)NC6=O)C7=O)C5)nc4C4CC4)cnc3c2)C1 (stereo partly drawn) [GS-755, 5-(((Trans-3-(3-cyclopropyl-4-(6-(1-methylazetidin-3-yl)quinoxalin-2-yl)-1H-pyrazol-1-yl)cyclobutyl)methyl)amino)-2-(2,6-dioxopiperidin-3-yl)isoindoline-1,3-dione]	10 to 100	< 10	10 to 100	< 10		
Nc1cnc2c(c1)c(C1CC1)nn2[C@H]1C[C@H](CNc2ccc3c(c2)C(=O)N(C2CCC(=O)NC2=O)C3=O)C1 (stereo partly drawn) [GS-756, 5-(((Trans-3-(5-amino-3-cyclopropyl-1H-pyrazolo[3,4-b]pyridin-1-yl)cyclobutyl)methyl)amino)-2-(2,6-dioxopiperidin-3-yl)isoindoline-1,3-dione]	> 1000		> 1000			
O=C1CCC(N2C(=O)c3ccc(NC[C@H]4C[C@H](n5nc(C6CC6)c6c(N7CCNCC7)cccc65)C4)cc3C2=O)C(=O)N1 (stereo partly drawn) [GS-757, 5-(((Trans-3-(3-cyclopropyl-4-(piperazin-1-yl)-1H-indazol-1-yl)cyclobutyl)methyl)amino)-2-(2,6-dioxopiperidin-3-yl)isoindoline-1,3-dione]	> 1000		> 1000			
Cc1nc(-c2cn(C3CC(O)(CNc4ccc5c(c4)C(=O)N(C4CCC(=O)NC4=O)C5=O)C3)nc2C2CC2)ccc1F (stereo not drawn) [GS-759, 5-(((Cis-3-(3-cyclopropyl-4-(5-fluoro-6-methylpyridin-2-yl)-1H-pyrazol-1-yl)-1-hydroxycyclobutyl)methyl)amino)-2-(2,6-dioxopiperidin-3-yl)isoindoline-1,3-dione]	> 1000	10 to 100		10 to 100	100 to 1000	
Cc1nc(-c2cn(C3CC(O)(CNc4ccc5c(c4)C(=O)N(C4CCC(=O)NC4=O)C5=O)C3)nc2C2CC2)ccc1F (stereo not drawn) [GS-760, 5-(((trans-3-(3-cyclopropyl-4-(5-fluoro-6-methylpyridin-2-yl)-1H-pyrazol-1-yl)-1-hydroxycyclobutyl)methyl)amino)-2-(2,6-dioxopiperidin-3-yl)isoindoline-1,3-dione]					> 1000	> 1000
Cn1ncc2cnc(-c3cn([C@H]4C[C@H](COc5ccc6c(c5)C(=O)N(C5CCC(=O)NC5=O)C6=O)C4)nc3C3CC3)cc21 (stereo partly drawn) [GS-761, 5-((Trans-3-(3-cyclopropyl-4-(1-methyl-1H-pyrazolo[4,3-c]pyridin-6-yl)-1H-pyrazol-1-yl)cyclobutyl)methoxy)-2-(2,6-dioxopiperidin-3-yl)isoindoline-1,3-dione]	> 1000	100 to 1000	> 1000	100 to 1000		
Nc1ccnc2c1c(C1CC1)nn2[C@H]1C[C@H](CNc2ccc3c(c2)C(=O)N(C2CCC(=O)NC2=O)C3=O)C1 (stereo partly drawn) [GS-762, 5-(((Trans-3-(4-amino-3-cyclopropyl-1H-pyrazolo[3,4-b]pyridin-1-yl)cyclobutyl)methyl)amino)-2-(2,6-dioxopiperidin-3-yl)isoindoline-1,3-dione]	> 1000		> 1000			
O=C1CCC(N2C(=O)c3ccc(NC[C@H]4C[C@H](n5cc(-c6cc7c(cn6)cnn7C6CC(O)C6)c(C6CC6)n5)C4)cc3C2=O)C(=O)N1 (stereo partly drawn) [GS-763, 5-(((Trans-3-(3-cyclopropyl-4-(1-(3-hydroxycyclobutyl)-1H-pyrazolo[4,3-c]pyridin-6-yl)-1H-pyrazol-1-yl)cyclobutyl)methyl)amino)-2-(2,6-dioxopiperidin-3-yl)isoindoline-1,3-dione]	10 to 100	< 10	10 to 100	< 10		
O=C1CCC(N2C(=O)c3ccc(NC[C@H]4C[C@H](n5cc(-c6cnc7ccc(C8CC(O)C8)cc7n6)c(C6CC6)n5)C4)cc3C2=O)C(=O)N1 (stereo partly drawn) [GS-764, 5-(((Trans-3-(3-cyclopropyl-4-(7-(3-hydroxycyclobutyl)quinoxalin-2-yl)-1H-pyrazol-1-yl)cyclobutyl)methyl)amino)-2-(2,6-dioxopiperidin-3-yl)isoindoline-1,3-dione]	< 10	< 10	< 10	< 10		
O=C1CCC(N2C(=O)c3ccc(NC[C@H]4C[C@H](n5nc(C6CC6)c6cccc(N7CCNCC7)c65)C4)cc3C2=O)C(=O)N1 (stereo partly drawn) [GS-765, 5-(((Trans-3-(3-cyclopropyl-7-(piperazin-1-yl)-1H-indazol-1-yl)cyclobutyl)methyl)amino)-2-(2,6-dioxopiperidin-3-yl)isoindoline-1,3-dione]	> 1000	100 to 1000	> 1000	100 to 1000		
Cn1ncc2cnc(-c3cn([C@H]4C[C@H](CCc5ccc6c(c5)CN([C@@H]5CCC(=O)NC5=O)C6=O)C4)nc3C3CC3)cc21 [GS-766, 3-(5-(2-(Trans-3-(3-cyclopropyl-4-(1-methyl-1H-pyrazolo[4,3-c]pyridin-6-yl)-1H-pyrazol-1-yl)cyclobutyl)ethyl)-1-oxoisoindolin-2-yl)piperidine-2,6-dione]	< 10	< 10	< 10	< 10		
Cn1ncc2cnc(-c3cn([C@H]4C[C@H](CCc5ccc6c(c5)C(=O)N(C5CCC(=O)NC5=O)C6=O)C4)nc3C3CC3)cc21 (stereo partly drawn) [GS-767, 5-(2-(Trans-3-(3-cyclopropyl-4-(1-methyl-1H-pyrazolo[4,3-c]pyridin-6-yl)-1H-pyrazol-1-yl)cyclobutyl)ethyl)-2-(2,6-dioxopiperidin-3-yl)isoindoline-1,3-dione]	100 to 1000	10 to 100	100 to 1000	10 to 100		
Cn1ccc2c(-c3cn([C@H]4C[C@H](CNc5ccc6c(c5)C(=O)N(C5CCC(=O)NC5=O)C6=O)C4)nc3C3CC3)ncc(F)c21 (stereo partly drawn) [GS-768, 5-(((Trans-3-(3-cyclopropyl-4-(7-fluoro-1-methyl-1H-pyrrolo[3,2-c]pyridin-4-yl)-1H-pyrazol-1-yl)cyclobutyl)methyl)amino)-2-(2,6-dioxopiperidin-3-yl)isoindoline-1,3-dione]	< 10	< 10	< 10	< 10		
CC(C)n1ccc2c(-c3cn([C@H]4C[C@H](CNc5ccc6c(c5)C(=O)N(C5CCC(=O)NC5=O)C6=O)C4)nc3C3CC3)ncc(F)c21 (stereo partly drawn) [GS-769, 5-(((Trans-3-(3-cyclopropyl-4-(7-fluoro-1-isopropyl-1H-pyrrolo[3,2-c]pyridin-4-yl)-1H-pyrazol-1-yl)cyclobutyl)methyl)amino)-2-(2,6-dioxopiperidin-3-yl)isoindoline-1,3-dione]	< 10	< 10	< 10	< 10		
CN1CCC(n2ncc3cnc(-c4cn([C@H]5C[C@H](CNc6ccc7c(c6)C(=O)N(C6CCC(=O)NC6=O)C7=O)C5)nc4C4CC4)cc32)CC1 (stereo partly drawn) [GS-770, 5-(((Trans-3-(3-cyclopropyl-4-(1-(1-methylpiperidin-4-yl)-1H-pyrazolo[4,3-c]pyridin-6-yl)-1H-pyrazol-1-yl)cyclobutyl)methyl)amino)-2-(2,6-dioxopiperidin-3-yl)isoindoline-1,3-dione]	10 to 100	10 to 100	10 to 100	10 to 100		
O=C1CCC(N2C(=O)c3ccc(NC[C@H]4C[C@H](n5cc(-c6ncccc6[C@H]6C[C@@H](O)C6)c(C6CC6)n5)C4)cc3C2=O)C(=O)N1 (stereo partly shown) [GS-771]	10 to 100	10 to 100	10 to 100	< 10		
O=C1CCC(N2C(=O)c3ccc(NC[C@H]4C[C@H](n5cc(-c6ncccc6[C@H]6C[C@H](O)C6)c(C6CC6)n5)C4)cc3C2=O)C(=O)N1 (stereo partly shown) [GS-772]	10 to 100	< 10	10 to 100	10 to 100		
